Each structure is given as a SMILES string. Read-outs that look alike come from different tables or passages of the source. Marks after values point to notes of the source that are not given here.

Here are results for two compounds from US20190054109A1, “An antiviral composition and a method for application thereof” (ALLA CHEM, LLC, priority 2017, published 2019).

One series can be described thus: in vitro. The settings on record: human, plasma. As for the experimental part:
(§1) Evaluation of stability in biological matrix for compositions comprising the prodrug of formula 1.1. Initial compositions comprising the prodrug of formula 1.1 (the tested compounds) were prepared with a concentration of 10 mM in DMSO. From said compositions, 100-fold working solutions were prepared with a concentration of 100 μM in a mixture of acetonitrile: water with a volumetric ratio of 1:1.
The incubation was performed in a Vortemp56 shaking incubator at 37° C. with stirring at a rate of 300 rev/min. […] The samples were then centrifuged, and the supernatant (150 μl) was sampled for analysis […]. The incubation was performed in two replicates, with each sample measured twice.
Samples were analyzed using an HPLC-MS/MS technique developed for each tested prodrug, wherein the chromatographic system 1290 Infinity II (Agilent Technologies) was combined with the tandem mass spectrometer QTRAP5500 (AB Sciex). […] Scanning in a total ion current mode (MS1) allowed us to identify a molecular ion for each compound, and basic product ions were recorded in MS2 mode. […] In quantitative chromatogram processing, the most intensive MRM transition was used for the analyte and the internal standard. […]

A short description of another series: physchem. The settings on record: simulated gi fluid. As for the experimental part: as §1
The tested composition comprising the prodrug of formula 1.1 in a final concentration of 1 μM was incubated in artificial gastric juice (0.2% NaCl in 0.7% v/v HCl) and artificial intestinal juice (0.05M KH2PO4, pH 6.75). The incubation was performed in a Vortemp56 shaking incubator at 37° C. with stirring at a rate of 300 rev/min. […] The samples were then centrifuged, and the supernatant (150 μl) was sampled for analysis […]. The incubation was performed in two replicates, with each sample measured twice.
Samples were analyzed using an HPLC-MS/MS technique developed for each tested prodrug, wherein the chromatographic system 1290 Infinity II (Agilent Technologies) was combined with the tandem mass spectrometer QTRAP5500 (AB Sciex). When developing conditions for mass-spectrometric detection, the solutions of tested compounds in a mixture of acetonitrile-water (1:1) with a concentration of 100 ng/ml were injected directly into the mass spectrometer using a syringe pump with electrospray ionization carried out in a positive ion mode. Scanning in a total ion current mode (MS1) allowed us to identify a molecular ion for each compound, and basic product ions were recorded in MS2 mode. Then, to attain maximum sensitivity, the MS/MS technique was optimized in MRM mode. In quantitative chromatogram processing, the most intensive MRM transition was used for the analyte and the internal standard. Separation was carried out by means of linear gradient elution chromatography on a YMC Triart C18 column (50×2 mm, 1.9 μm) in a mobile phase consisting of 0.1% formic acid in water and 0.1% formic acid in acetonitrile. Tolbutamide (Fluka) was used as the internal standard.
Half-life (T1/2) was found from the kinetics of tested prodrug elimination in an antiviral composition during incubation in a biological matrix. The computations were based on the values of chromatographic peak areas for compounds in test samples normalized to the internal standard signal. From linear dependence of log normalized areas of chromatographic peaks on time, the constant of elimination rate was calculated (k is linear section slope).

The conditions of series [1]: from Sofia et al. J. Med. Chem. 2010, cited from earlier work.
For series [2], the system named is Huh7 human hepatocellular carcinoma cell line. The settings on record: cited from earlier work.
Series [3] concerns six HCV genotypes (gT1-gT6). The settings on record: cited from earlier work.
For series [4] the following is noted: from Sofia et al. J. Med. Chem. 2010, cited from earlier work. This is another data set of the same source.
For series [5] the following is noted: from Sofia et al. J. Med. Chem. 2010, cited from earlier work. The source holds these as a separate data set.
The next series deals with gT1b NS5B HCV. The conditions noted are these: cited from earlier work; for EC50: from hcvdruginfo.ca.

One may read the half-life as the time in which the quantity being followed falls by half. High values mean slow loss, low ones fast loss. Regarding `C[C@H](N[P@@](=O)(OC[C@H]1O[C@@H](n2ccc(=O)[nH]c2=O)[C@](C)(F)[C@@H]1O)Oc1ccccc1)C(=O)OC1CCC1` [Prodrug 1.2, cyclobutyl (S)-2-((R)-(((2R,3R,4R,5R)-5-(2,4-dioxo-3,4-dihydropyrimidin-1(2H)-yl)-3-hydroxy-4-methyl-4-fluoro-tetrahydrofuran-2-yl)methoxy)-(phenoxy)-phosphorylamino)-propanoate], the half-life at 1 μM in the series “in vitro” was greater than 1440 min; in “physchem” (T1/2 SGF, artificial gastric juice, 37° C.), 762 to 900 min; in “physchem” (pH 6.75), greater than 1440 min.

The CC50 is the concentration at which the toxic effect on the cells reaches its halfway point. The EC90 is the concentration at which the effect reaches the 90% level. As a reminder, the EC50 is the concentration at which the effect is half-maximal. For `CC(C)OC(=O)[C@H](C)N[P@](=O)(OC[C@H]1O[C@@H](n2ccc(=O)[nH]c2=O)[C@](C)(F)[C@@H]1O)Oc1ccccc1` [Sovaldi®, Sofosbuvir], the “T1/2 Human plasma” value in series [1] was greater than 24 h; in series [1] (listed as Sovaldi ®) it was >24* h. For the same compound, the CC90 in series [2] (10% FBS, from Sofia et al. J. Med. Chem. 2010) was greater than 100 µM. In series [2] (Huh7, Table 2 marks the value as from Sofia et al.), the CC50 is greater than 100 µM. The “efficiency in clinical trials” value in series [3] is “high efficiency”. The entries for the “T1/2 SIF” value in series [4] and in series [4] (listed as Sovaldi ®) were greater than 24 h and >24* h, respectively. Further, the “T1/2 SGF” value in series [5] is 12.7 to 15 h; in series [5] (listed as Sovaldi ®), 22.0* h. The 90% effect concentration (EC90) with gT1b NS5B HCV (HCV genotype 1b (gT1b)) is 590 nM; in the series on gT1b NS5B HCV (gT1b HCV, 10% FBS, from Sofia et al. J. Med. Chem. 2010), 520 nM. The EC50 with gT1b NS5B HCV (HCV genotype 1b (gT1b)) was 45 to 170 nM; in the series on gT1b NS5B HCV (gT1b HCV, 10% FBS), 45 to 170 nM.
